What all share (assay type): cell-based
The subject of series [1] is Acinetobacter baumannii 872842. Particulars: 872842. The method, boiled down: (§1)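 Cation-adjusted MH-II broth, 0.002% polysorbate 80, inoculum near 10^6 CFU/mL. MIC read visually after 18-20 h, 35° C; units μg/mL.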
In series [2] the test system is Acinetobacter baumannii DSM 30008. Particulars: DSM 30008. The procedure, abridged:
as §1

The subject of series [3] is Enterobacter cloacae 848840. The note with it: 848840. The procedure, abridged: as §1
In series [4] the test system is Escherichia coli 926415. The note with it: 926415. The procedure, abridged: as §1
For series [5], the system named is Escherichia coli ATCC 25922. Particulars: ATCC 25922. The procedure, abridged:
as §1

Series [6] has as its system Klebsiella pneumoniae 968733. Particulars: 968733. The method, boiled down: as §1
In series [7] the test system is Klebsiella pneumoniae SSI #3010. The note with it: SSI #3010. The procedure, abridged:
as §1

In series [8] the test system is Pseudomonas aeruginosa ATCC 27853. The note with it: ATCC 27853. The procedure, abridged: as §1
The subject of series [9] is human red blood cells (hRBC). The series can be described thus: Hemolysis. The note with it: red cells of human, 1 h, 200. The method, boiled down:
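Read-out is supernatant absorbance at 540 nm, normalised to full lysis by 2% Triton X-100 and zero lysis by PBS with 10% water. Peptides (200 μg/mL) were exposed to 20% v/v washed human erythrocytes at 37° C for 1 h under shaking.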

The structures appear in SMILES notation. Converted amounts (≈) assume the structure as drawn. Where a SMILES comes first, the peptide text is derived from it. Bridges are numbered along the chain shown (N, C = ends). Roman numbers before positions name the chains, in order. [ ]: non-standard residue; d: D form. Thr(ol) = C[C@@H](O)[C@H](N)CO; Tle = CC(C)(C)[C@H](N)C(=O)O; Hiv = CC(C)[C@H](O)C(=O)O; dDab = NCC[C@@H](N)C(=O)O; Orn = NCCC[C@H](N)C(=O)O; Dab = NCC[C@H](N)C(=O)O; Dap = NC[C@H](N)C(=O)O

A word on the MIC: it is the least concentration at which growth counts as inhibited. With `CC(C)C[C@@H]1NC(=O)[C@@H](CC(C)C)NC(=O)[C@H](CCN)NC(=O)[C@@H](NC(=O)[C@H](CN)NC(=O)[C@@H](NC(=O)[C@H](CCN)NC(=O)CC[C@@H]2NC(=O)[C@@H](CCN)NC(=O)[C@H](CCCN)NC(=O)[C@@H](NC(=O)[C@H](Cc3ccc(O)cc3)NC(=O)[C@@H](NC(=O)[C@@H](O)C(C)C)[C@@H](C)O)CSSC[C@@H](C(=O)N[C@H](C(=O)N[C@@H](C)C(=O)N[C@H](CO)[C@@H](C)O)C(C)(C)C)NC(=O)[C@H](Cc3c[nH]c4ccccc34)NC2=O)[C@@H](C)O)CCNC(=O)[C@H]([C@@H](C)O)NC(=O)[C@H](CCN)NC(=O)[C@H](CCN)NC1=O` [Ex. 211] (I: H-[Hiv]TYC[Orn][dDab]EWC[Tle]A[Thr(ol)] / II: [Dab]T[Dap][Dab][Dab][dL]L[Dab][Dab]T; disulfide I:4-I:9; amide I:7-II:N; lactam II:4-II:C), the MIC turned out to be 0.0625 µg/mL (≈ 0.0262 µM) in series [1]; 0.03125 µg/mL (≈ 0.0131 µM) in series [2]; 2 µg/mL (≈ 0.839 µM) in series [3]; 0.25 µg/mL (≈ 0.105 µM) in [4]; 0.0625 µg/mL (≈ 0.0262 µM) in series [5]; 0.25 µg/mL (≈ 0.105 µM) in series [6]. The minimal inhibitory concentration (MIC) was 0.0625 µg/mL (≈ 0.0262 µM) in [7] and 0.125 µg/mL (≈ 0.0524 µM) in [8]. In addition, in series [9], the “Hemolysis at 200 μg/mL” value was under 1%.

As for `CC(C)C[C@@H]1NC(=O)[C@@H](CC(C)C)NC(=O)[C@H](CCN)NC(=O)[C@@H](NC(=O)[C@H](CN)NC(=O)[C@@H](NC(=O)[C@H](CCN)NC(=O)CC[C@@H]2NC(=O)CNC(=O)[C@H](CCCN)NC(=O)[C@@H](NC(=O)[C@H](Cc3ccc(O)cc3)NC(=O)[C@@H](NC(=O)[C@@H](O)C(C)C)[C@@H](C)O)CSSC[C@@H](C(=O)N[C@H](C(=O)N[C@@H](C)C(=O)N[C@H](CO)[C@@H](C)O)C(C)(C)C)NC(=O)[C@H](Cc3c[nH]c4ccccc34)NC2=O)[C@@H](C)O)CCNC(=O)[C@H]([C@@H](C)O)NC(=O)[C@H](CCN)NC(=O)[C@H](CCN)NC1=O` [Ex. 212] (I: H-[Hiv]TYC[Orn]GEWC[Tle]A[Thr(ol)] / II: [Dab]T[Dap][Dab][Dab][dL]L[Dab][Dab]T; disulfide I:4-I:9; amide I:7-II:N; lactam II:4-II:C), the MIC was 0.5 µg/mL (≈ 0.214 µM) in series [1]; 0.125 µg/mL (≈ 0.0534 µM) in series [2]; 0.5 µg/mL (≈ 0.214 µM) in series [3]; 1 µg/mL (≈ 0.427 µM) in [4]; 0.0625 µg/mL (≈ 0.0267 µM) in series [5]; 2 µg/mL (≈ 0.854 µM) in series [6]. For the same molecule, the MIC in [7] and in [8] was 0.25 µg/mL (≈ 0.107 µM) each time. In [9], the “Hemolysis at 200 μg/mL” value was found to be 1%.

Consider `CC(C)C[C@@H]1NC(=O)[C@@H](CC(C)C)NC(=O)[C@H](CCN)NC(=O)[C@@H](NC(=O)[C@H](CN)NC(=O)[C@@H](NC(=O)[C@H](CCN)NC(=O)CC[C@@H]2NC(=O)[C@@H](CCN)NC(=O)CNC(=O)[C@@H](NC(=O)[C@H](Cc3ccc(O)cc3)NC(=O)[C@@H](NC(=O)[C@@H](O)C(C)C)[C@@H](C)O)CSSC[C@@H](C(=O)N[C@H](C(=O)N[C@@H](C)C(=O)N[C@H](CO)[C@@H](C)O)C(C)(C)C)NC(=O)[C@H](Cc3c[nH]c4ccccc34)NC2=O)[C@@H](C)O)CCNC(=O)[C@H]([C@@H](C)O)NC(=O)[C@H](CCN)NC(=O)[C@H](CCN)NC1=O` [Ex. 213] (I: H-[Hiv]TYCG[dDab]EWC[Tle]A[Thr(ol)] / II: [Dab]T[Dap][Dab][Dab][dL]L[Dab][Dab]T; disulfide I:4-I:9; amide I:7-II:N; lactam II:4-II:C), for which the minimal inhibitory concentration (MIC) in [1] was found to be 0.125 µg/mL (≈ 0.0537 µM); in series [2] it was 0.0625 µg/mL (≈ 0.0268 µM); in series [3] it was 1 µg/mL (≈ 0.43 µM); in series [4], 0.5 µg/mL (≈ 0.215 µM); in series [5], 0.125 µg/mL (≈ 0.0537 µM); in series [6], 0.5 µg/mL (≈ 0.215 µM). The MIC is 0.125 µg/mL (≈ 0.0537 µM) in [7] and 0.25 µg/mL (≈ 0.107 µM) in [8]. The “Hemolysis at 200 μg/mL” value in series [9] is given as under 1%.

With `CC(C)C[C@@H]1NC(=O)[C@@H](CC(C)C)NC(=O)[C@H](CCN)NC(=O)[C@@H](NC(=O)[C@H](CN)NC(=O)[C@@H](NC(=O)[C@H](CCN)NC(=O)CC[C@H]2NC(=O)[C@@H](CCN)NC(=O)CNC(=O)[C@@H](NC(=O)[C@H](Cc3ccc(O)cc3)NC(=O)[C@@H](NC(=O)[C@@H](O)C(C)C)[C@@H](C)O)CSSC[C@@H](C(=O)N[C@H](C(=O)N[C@@H](C)C(=O)N[C@H](CO)[C@@H](C)O)C(C)(C)C)NC(=O)[C@H](Cc3c[nH]c4ccccc34)NC2=O)[C@@H](C)O)CCNC(=O)[C@H]([C@@H](C)O)NC(=O)[C@H](CCN)NC(=O)[C@H](CCN)NC1=O` [Ex. 214] (I: H-[Hiv]TYCG[dDab][dE]WC[Tle]A[Thr(ol)] / II: [Dab]T[Dap][Dab][Dab][dL]L[Dab][Dab]T; disulfide I:4-I:9; amide I:7-II:N; lactam II:4-II:C), the minimum inhibitory concentration (MIC) was found to be 0.5 µg/mL (≈ 0.215 µM) in series [1]; 0.125 µg/mL (≈ 0.0537 µM) in series [2]; 8 µg/mL (≈ 3.44 µM) in series [3]; 0.5 µg/mL (≈ 0.215 µM) in series [4]; 0.0625 µg/mL (≈ 0.0268 µM) in series [5]; 0.5 µg/mL (≈ 0.215 µM) in series [6]. For the same molecule, the figures for the MIC in [7] and in [8] were 0.25 µg/mL (≈ 0.107 µM) and 0.5 µg/mL (≈ 0.215 µM), respectively. Further, the “Hemolysis at 200 μg/mL” value in series [9] was under 1%.

`CC(=O)N[C@H](C(=O)N[C@H](C(=O)N[C@@H](Cc1ccc(O)cc1)C(=O)N[C@H]1CSSC[C@@H](C(=O)N[C@H](C(=O)N[C@@H](C)C(=O)N[C@H](C(N)=O)[C@@H](C)O)C(C)(C)C)NC(=O)[C@H](Cc2c[nH]c3ccccc23)NC(=O)[C@H](CO)NC(=O)[C@@H](CCN)NC(=O)[C@H](CCC(=O)N[C@@H](CCN)C(=O)N[C@H](C(=O)N[C@@H](CN)C(=O)N[C@H]2CCNC(=O)[C@H]([C@@H](C)O)NC(=O)[C@H](CCN)NC(=O)[C@H](CCN)NC(=O)[C@H](CC(C)C)NC(=O)[C@@H](CC(C)C)NC(=O)[C@H](CCN)NC2=O)[C@@H](C)O)NC1=O)[C@@H](C)O)C(C)C` [Ex. 220] (I: Ac-VTYCE[dDab]SWC[Tle]AT-NH2 / II: [Dab]T[Dap][Dab][Dab][dL]L[Dab][Dab]T; disulfide I:4-I:9; amide I:5-II:N; lactam II:4-II:C): the minimum inhibitory concentration (MIC) amounted to 0.0625 µg/mL (≈ 0.0259 µM) in series [1]; 0.03125 µg/mL (≈ 0.013 µM) in series [2]; 0.125 µg/mL (≈ 0.0518 µM) in series [3]; 0.125 µg/mL (≈ 0.0518 µM) in [4]; 0.03125 µg/mL (≈ 0.013 µM) in [5]; 0.125 µg/mL (≈ 0.0518 µM) in series [6]. Moreover, the results for the MIC in [7] and in [8] were 0.0625 µg/mL (≈ 0.0259 µM) and 0.125 µg/mL (≈ 0.0518 µM), respectively. Also, the “Hemolysis at 200 μg/mL” value in series [9] is on record as under 1%.

The values are drawn from patent US11629171B2, “Beta-hairpin peptidomimetics” (POLYPHOR AG, priority 2017, dated 2023).
